Assay results: US5608095A, “Alkyl-4-silyl-phenols and esters thereof as antiatherosclerotic agents” (Hoechst Marion Roussel, Inc., priority 1996, dated 1997)
Read-outs that look alike come from different tables or passages of the source.

Key:
[1] = Food consumption, body and liver weight in cholesterol-fed rabbits; type: in vivo, female New Zealand White rabbits; conditions: diet 0.4%, 7 days; for body wt., percent of control / lw/bw (liver weight/body weight), percent of control: rabbit
In short: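 Female New Zealand White rabbits fed 100 g/day of 0.2% cholesterol chow sprayed with compound (mostly 0.4%; some at 0.26% or 0.6%) from ethanol or diethyl ether:ethanol 3:2, for 7 days (14 days at 0.6%). Daily food intake, terminal body and liver weights recorded in grams.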

[2] = test system: ICAM-1; assay: Cell surface ELISA for ICAM-1 in human umbilical vein endothelial cells (HUVEC), TNF-alpha induced; type: cell-based; conditions: 50 μM, average of two runs, numbers in parentheses represent negative values
Method: (§1) Cell Surface ELISA for VCAM-1/ICAM-1
(§2) Proliferating human umbilical vein endothelial cells (HUVEC) or human aortic smooth muscle cells (HASMC) from Clonetics (San Diego, Calif.) were plated onto 96-well plates in 100 μL medium per well at 20,000 cells per cm^2. The cultures were maintained in growth medium (EGM or SMGM2, Clonetics, San Diego, Calif.) for two days prior to addition of cytokines or drugs. Cytokines plus or minus compounds were added for 20 to 24 hours prior to analysis for adhesion molecule levels. Tumor necrosis factor (Genzyme, Cambridge, Mass.) was added to cultures at 500-1000 units/mL. Interleukin-4 (GIBCO-BRL, Gaithersburg, Md.) was added to cultures at 100-200 pg/mL. (Additions were made by transferring 100 [μL of cytokines plus compounds serially diluted on a separate 96-well plate into the plates containing cells. The medium on the cultures was not exchanged prior to addition of effectors). The culture medium was removed, and the monolayers were washed twice with Hanks buffered saline solution (HBSS) at room temperature. The primary antibody (anti-human VCAM-1 from Upstate Biotechnology, Inc., Lake Placid, N.Y. or anti-human ICAM-1 from Immunotech, Inc., Westbrook, Me.) was added to each well (1 μg/mL in HBSS plus 5% newborn calf serum, GIBCO-BRL, Gaithersburg, Md.) and incubated at 37° C. for 1 hr. The wells were washed twice with HBSS, then 100 μL of a 1/1000 dilution of goat anti-mouse IgG conjugated to horse radish peroxidase (BioRad, Hercules, Calif.) in HBSS plus 5% newborn calf serum was added to each well and incubated for 1 hr at 37° C. The wells were washed three times with HBSS, then 100 μL of TMB substrate (BioRad, Hercules, Calif.) was added to each well. The reaction was stopped after blue color developed by addition of 50 μL of 1N H2 SO4. Absorbance is measured at 450 nm with a plate reader. IC50 values were determined from curves of absorbance values obtained from serial dilutions of compounds (dissolved in dimethyl sulfoxide).
(§3) The IC50 value is defined as the drug concentration that inhibits the cytokine-induced adhesion molecule expression by 50%. Maximal values for adhesion molecule expression in cytokine-induced cultures was […] the basal level of adhesion molecule expression (minus cytokines) in the cultures to determine the level of induction. […] Each drug concentration was tested in quadruplicate wells. Single point tests of compounds at 50 μM were assayed as described for IC50 determinations, except that the data represent the level of inhibition without correction for basal expression. (Basal adhesion molecule expression was 10-20% of the total induced expression). Table 1 summarizes the ability of various compounds of this invention to inhibit VCAM-1 using human aortic smooth muscle cells (HASMC). In these experiments, the cells were coincubated with interleukin-4 and the compounds listed about 20 hr before assaying cell surface VCAM-1 levels. Each column represents a separate experiment.
(§4) In these experiments, the cells were coincubated with tumor necrosis factor-alpha along with the indicated compounds about 20 to 24 hr before assaying cell surface adhesion molecule expression.

[3] = Clinical chemistries in serum of rats; type: in vivo, male Sprague-Dawley rats; conditions: for response vs control in vivo at 0.1 % / response vs control in vivo at 0.3 %: po, 96 h
In short: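 Male Sprague-Dawley rats (50-100 g, N=5/group) fed compound as 0.3% or 0.1% dietary admixture for 4 days vs untreated-chow controls. Non-fasted rats bled by cardiac puncture on day 5; fresh serum analysed on autoanalyzer for ALP, ALT, AST (units/L) and cholesterol, triglycerides, glucose (mg/dL).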

[4] = test system: VCAM-1; assay: Cell surface ELISA for VCAM-1 in human umbilical vein endothelial cells (HUVEC), TNF-alpha induced; type: cell-based; conditions: 50 μM, average of three runs
Method: as §1, §2, §3, §4

[5] = Rattus norvegicus, read-out: CHOL (total cholesterol), percent of control
[6] = Rattus norvegicus, read-out: TRIG (triglycerides), percent of control

| SMILES | food (grams eaten per day per rabbit), percent of control [1] | body wt., percent of control [1] | lw/bw (liver weight/body weight), percent of control [1] | ICAM-1 % inh. [2] | ALP (alkaline phosphatase), percent of control ([3]; rat serum, diet 0.1%, 4 days) | ALT (alanine aminotransferase), percent of control ([3]; rat serum, diet 0.1%, 4 days) | AST (aspartate aminotransferase), percent of control ([3]; rat serum, diet 0.1%, 4 days) | GLUC (glucose), percent of control ([3]; rat serum, diet 0.1%, 4 days) | ALP (alkaline phosphatase), percent of control ([3]; rat serum, diet 0.3%, 4 days) | ALT (alanine aminotransferase), percent of control ([3]; rat serum, diet 0.3%, 4 days) | AST (aspartate aminotransferase), percent of control ([3]; rat serum, diet 0.3%, 4 days) | GLUC (glucose), percent of control ([3]; rat serum, diet 0.3%, 4 days) | VCAM-1 % inh. [4] | also measured |
| --- | --- | --- | --- | --- | --- | --- | --- | --- | --- | --- | --- | --- | --- | --- |
| CC(C)(C)c1cc(OC[Si](C)(C)c2ccc(C(F)(F)F)cc2)cc(C(C)(C)C)c1O [MDL 105,975, 2,6-Di-t-butyl-4-[(dimethyl-4-trifluoromethylphenylsilyl)methyloxy]phenol] | 100% | 101% | 108% | 2.5% | 112% | 96% | 89% | 110% | 105% | 106% | 122% | 106% | 6.3% | response vs control in vivo at 0.1 % [3, 5]: 98%; response vs control in vivo at 0.3 % [3, 5]: 122%; response vs control in vivo at 0.1 % [3, 6]: 108%; response vs control in vivo at 0.3 % [3, 6]: 107% |
| CN(C)c1ccc([Si](C)(C)COc2cc(C(C)(C)C)c(O)c(C(C)(C)C)c2)cc1 [MDL 104,556, 2,6-Di-t-butyl-4-[(4-N,N-dimethylaminophenyldimethylsilyl)methyloxy]phenol] | 100% | 97% | 96% | 1.5% | 112% | 125% | 107% | 102% | 112% | 106% | 101% | 113% | 33.3% | response vs control in vivo at 0.1 % ([3]; rat serum, diet 0.1%, 4 days, read-out: CHOL (total cholesterol), percent of control): 96%; response vs control in vivo at 0.1 % ([3]; rat serum, diet 0.1%, 4 days, read-out: TRIG (triglycerides), percent of control): 74%; response vs control in vivo at 0.3 % ([3]; rat serum, diet 0.3%, 4 days, read-out: CHOL (total cholesterol), percent of control): 119%; response vs control in vivo at 0.3 % ([3]; rat serum, diet 0.3%, 4 days, read-out: TRIG (triglycerides), percent of control): 95% |
